# Patent publication US4024277A, “Phosphoro-aminosulfenyl derivatives of benzofuran carbamates” (priority 1975, dated 1977)
# Key:
# [1] = tested on: house flies; assay: Level I immersion test, house flies; type: in vivo, Musca domestica Linnaeus; conditions: HF, 5 mg/milliliter; for % Knockdown: 10 minutes after immersion; for mortality at 5000 µg/mL: Musca domestica, after 18-24 hours, read-out: % Kill
# Experimental: (§1) e. Insecticidal Activity Against House Flies and German Cockroaches
# (§2) Compounds of this invention were tested in a Level I test at 5 mg. of active compounds/milliliter of a solution of 40% acetone -- 60% water.
# (§3) In this test a group of ten house flies (Musca domestica Linnaeus) were completely immersed in 25 ml. of the insecticidal test solution. After 10 seconds of immersion, the test solution is removed. The house flies are then transferred to holding cages lines with paper toweling. In the case of the house flies, the knockdown counts were recorded 10 minutes after termination of the immersion. The percent kill was recorded after 18-24 hours.
# [2] = tested on: confused flour beetle; assay: Initial insecticidal activity, confused flour beetle; type: in vivo, Tribolium confusum Jacquelin duVal; conditions: Tribolium confusum, 48-hour exposure, read-out: % Kill, Confused Flour Beetle
# Excerpt: (§4) a. Initial Insecticidal Activity
# (§5) In this test, a candidate insecticide, in solution, is applied to either infested or uninfested plants or containers by spraying or dipping. (The preferred test procedure varies with insect species. The dipping method is better than the spraying method, and vice versa, for certain species of insects. Also some species are better adapted to the test by infesting after the chemical treatment rather than before.) Once the tests have been established, a 48-hour exposure period is observed before reading the tests. Insect species included in these tests are Mexican bean beetle (Epilachna varivestis Mulsant), pea aphid [Acyrthosiphon pisum (Harris)], southern armyworm [Spodoptera eridania (Cramer)], twospotted spider mite (Tetranychus urticae Koch), large milkweed bug [Oncopeltus fasciatus (Dallas)], plum curculio [Conotrachelus nenuphar (Herbst)], confused flour beetle (Tribolium confusum Jacquelin duVal) and granary weevil [Sitophilus granarius (Linnaeus)]. Test results are set forth in Table I. A control sample, comprising the solution without the candidate insecticide, is also included.
# [3] = tested on: Mexican bean beetle; assay: Seven-day residual insecticidal activity, Mexican bean beetle; type: in vivo, Epilachna varivestis Mulsant; conditions: Epilachna varivestis, 48-hour exposure, read-out: % Kill, Mexican Bean Beetle
# Excerpt: (§6) b. Seven-Day Residual Insecticidal Activity
# (§7) In this test, a candidate insecticide, in solution, is applied to uninfested plants or containers by dipping or spraying. A seven-day holding period is necessary before infestation. A 48-hour exposure period is observed before evaluation of the tests. The insect species used in this type of test are the same as those listed under initial activity.
# [4] = tested on: southern armyworm; assay: Initial insecticidal activity, southern armyworm; type: in vivo, Spodoptera eridania (Cramer); conditions: Spodoptera eridania, 48-hour exposure, read-out: % Kill, Southern Armyworm
# Excerpt: as §4, §5
# [5] = tested on: confused flour beetle; assay: Seven-day residual insecticidal activity, confused flour beetle; type: in vivo, Tribolium confusum Jacquelin duVal; conditions: Tribolium confusum, 48-hour exposure, read-out: % Kill, Confused Flour Beetle
# Excerpt: as §6, §7
# [6] = tested on: German cockroaches; assay: Level II topical test, German cockroaches; type: in vivo, Blattella germanica (Linnaeus); conditions: GC (male), one microgram topically per insect; for mortality at 0.001 mg: Blattella germanica, topical, read-out: % Kill; for % Knockdown: 30 minutes
# Experimental: as §1
# In a Level II test the compounds of this invention were tested for insecticidal activity against female house flies (resistant) and male German cockroaches. Ten insects were anesthetized with carbon dioxide and placed in a container for about 2 hours, during which time the insects recovered to normal activity. The container confining the insects is fitted with a plunger which is used to force the insects against a nylon mesh at one end of the container. One microliter of an acetone solution containing one microgram of the candidate insecticide was applied topically to each insect. The plunger was withdrawn and the insects were allowed to move freely about the container. Knockdown counts were recorded 10 minutes after treatment of house flies and 30 minutes after treatment of cockroaches.
# [7] = tested on: plum curculio; assay: Seven-day residual insecticidal activity, plum curculio; type: in vivo, Conotrachelus nenuphar (Herbst); conditions: Conotrachelus nenuphar, 48-hour exposure, read-out: % Kill, Plum Curculio
# Excerpt: as §6, §7
# [8] = tested on: Mexican bean beetle; assay: Initial insecticidal activity, Mexican bean beetle; type: in vivo, Epilachna varivestis Mulsant; conditions: Epilachna varivestis, 48-hour exposure, read-out: % Kill, Mexican Bean Beetle
# Excerpt: as §4, §5
# [9] = tested on: twospotted spider mite; assay: Initial insecticidal activity, twospotted spider mite; type: in vivo, Tetranychus urticae Koch; conditions: Tetranychus urticae, 48-hour exposure, read-out: % Kill, Twospotted Spider Mite
# Excerpt: as §4, §5
# [10] = tested on: twospotted spider mite; assay: Seven-day residual insecticidal activity, twospotted spider mite; type: in vivo, Tetranychus urticae Koch; conditions: Tetranychus urticae, 48-hour exposure, read-out: % Kill, Twospotted Spider Mite
# Excerpt: as §6, §7
# [11] = tested on: southern armyworm; assay: Seven-day residual insecticidal activity, southern armyworm; type: in vivo, Spodoptera eridania (Cramer); conditions: Spodoptera eridania, 48-hour exposure, read-out: % Kill, Southern Armyworm
# Excerpt: as §6, §7
# [12] = tested on: twospotted spider mite; assay: Ovicidal activity against the twospotted spider mite; type: in vivo, Tetranychus urticae Koch; conditions: Tetranychus urticae, eggs, 7 to 10 days, read-out: % Kill (ovicidal)
# Experimental: d. Ovicidal Activity Against the Twospotted Spider Mite
# In this test, Pinto bean seedlings are infested with female twospotted spider mites; about 3-4 hours are allowed for egg deposition. Plants are then dipped in TEPP (tetraethylpyrophosphate-commercial emulsifiable concentrate (EC)) solution containing 936 ppm of active ingredient. TEPP kills motile forms on the leaf and promptly degrades without effecting the egg stage. Two to three hours after TEPP treatment the plants are again dipped -- this time into a candidate insecticide solution. The test plants are maintained for 7 to 10 days. Termination of exposure is determined by the time required to attain complete hatch in the untreated check.
# [13] = tested on: twospotted spider mite; assay: Systemic insecticidal activity (soil/water), twospotted spider mite; type: in vivo, Tetranychus urticae Koch; conditions: Tetranychus urticae, 48-hour exposure, read-out: % Kill, Twospotted Spider Mite
# Experimental: c. Systemic Insecticidal Acitivity (Soil/Water)
# In this test, a candidate insecticide, in solution, is added to the soil of either uninfested pinto bean seedlings (Phaseolus vulgaris) or uninfested broad bean seedlings (Vicia faba var. Windsor). The plant species used depend on the insect species in the test. Usually, a 72-hour translocation period before infestation is required, followed by a 48-hour exposure period, before evaluation of the tests. The insect species used in the systemic tests are Mexican bean beetle, southern armyworm, pea aphid, and twospotted spider mite.
# [14] = tested on: German cockroaches; assay: Level I immersion test, German cockroaches; type: in vivo, Blattella germanica (Linnaeus); conditions: GC (male), 5 mg/milliliter; for mortality at 5000 µg/mL: Blattella germanica, 18-24 hours, read-out: % Kill; for % Knockdown: 30 minutes after immersion
# Experimental: as §1, §2, §3
# The same Level I test technique was employed using male German cockroaches [Blattella germanica (Linnaeus)]. In this case, the knockdown counts were recorded 30 minutes after the termination of the immersion.
Compound,% Knockdown [1],mortality at 5000 µg/mL [1],mortality at 39 ppm [2],mortality at 156 ppm [2],mortality at 1250 ppm [2],mortality at 39 ppm [3],mortality at 156 ppm [3],mortality at 1250 ppm [3],mortality at 39 ppm [4],mortality at 156 ppm [4],mortality at 1250 ppm [4],mortality at 39 ppm [5],mortality at 156 ppm [5],mortality at 1250 ppm [5],mortality at 0.001 mg [6],% Knockdown [6],mortality at 39 ppm [7],mortality at 156 ppm [7],mortality at 1250 ppm [7],mortality at 39 ppm [8],further results
"CC(C)OP(=O)(OC(C)C)N(C)SN(C)C(=O)Oc1cccc2c1OC(C)(C)C2 [6(c), 2,3-Dihydro-2,2-dimethyl-7-benzofuranyl [(N-diisopropoxyphosphinyl) (N-methyl)aminosulfenyl][methyl]carbamate]",100%,100%,0%,0%,18%,6%,38%,100%,6%,73%,100%,0%,0%,0%,0%,0%,0%,0%,100%,100%,mortality at 156 ppm [8]: 94%; mortality at 1250 ppm [8]: 100%; mortality at 39 ppm [9]: 6%; mortality at 156 ppm [9]: 23%; mortality at 1250 ppm [9]: 100%; mortality at 39 ppm [10]: 0%; mortality at 156 ppm [10]: 1%; mortality at 1250 ppm [10]: 0%; mortality at 39 ppm [11]: 0%; mortality at 156 ppm [11]: 0%; mortality at 1250 ppm [11]: 7%; mortality at 156 ppm [12]: 0%; mortality at 1250 ppm [12]: 91%; mortality at 39 ppm [13]: 4%; mortality at 156 ppm [13]: 19%; mortality at 5000 µg/mL [14]: 100%; % Knockdown [14]: 100%
"CCOP(=O)(OCC)N(CC)SN(C)C(=O)Oc1cccc2c1OC(C)(C)C2 [8(c), 2,3-Dihydro-2,2-dimethyl-7-benzofuranyl [(N-diethoxyphosphinyl) (N-ethyl)aminosulfenyl][methyl]carbamate]",100%,100%,0%,0%,50%,12%,93%,100%,0%,59%,100%,0%,0%,12%,0%,0%,0%,5%,100%,100%,mortality at 156 ppm [8]: 100%; mortality at 1250 ppm [8]: 100%; mortality at 39 ppm [9]: 5%; mortality at 156 ppm [9]: 36%; mortality at 1250 ppm [9]: 100%; mortality at 39 ppm [10]: 0%; mortality at 156 ppm [10]: 0%; mortality at 1250 ppm [10]: 0%; mortality at 39 ppm [11]: 0%; mortality at 156 ppm [11]: 0%; mortality at 1250 ppm [11]: 43%; mortality at 156 ppm [12]: 0%; mortality at 1250 ppm [12]: 26%; mortality at 39 ppm [13]: 4%; mortality at 156 ppm [13]: 13%; mortality at 5000 µg/mL [14]: 100%; % Knockdown [14]: 100%
"CCOP(=O)(OCC)N(C)SN(C)C(=O)Oc1cccc2c1OC(C)(C)C2 [Example 1(c), 2,3-dihydro-2,2-dimethyl-7-benzofuranyl [(N-diethoxyphosphinyl) (N-methyl)-aminosulfenyl][methyl]carbamate]",100%,100%,14%,15%,33%,38%,89%,86%,6%,20%,95%,10%,18%,23%,0%,0%,0%,22%,85%,100%,mortality at 156 ppm [8]: 100%; mortality at 1250 ppm [8]: 100%; mortality at 39 ppm [9]: 21%; mortality at 156 ppm [9]: 37%; mortality at 1250 ppm [9]: 100%; mortality at 39 ppm [10]: 2%; mortality at 156 ppm [10]: 1%; mortality at 1250 ppm [10]: 9%; mortality at 39 ppm [11]: 0%; mortality at 156 ppm [11]: 5%; mortality at 1250 ppm [11]: 95%; mortality at 39 ppm ([12]; 39 ppm): 0%; mortality at 156 ppm [12]: 0%; mortality at 1250 ppm [12]: 72%; mortality at 39 ppm [13]: 2%; mortality at 156 ppm [13]: 8%; mortality at 5000 µg/mL [14]: 100%; % Knockdown [14]: 100%
